Experimental data reported in article PMC5874719, “A π-Halogen Bond of Dibenzofuranones with the Gatekeeper Phe113 in Human Protein Kinase CK2 Leads to Potent Tight Binding Inhibitors” (Pharmaceuticals, 2018).

Tests used:
Format in all cases: cell-based, human
ARPE19 cells = assay: MTT viability assay; details: 24 h; for cell viability reduced to: ARPE19, 50 µM (highest concentration), DMSO as reference
Procedure: Protein kinase CK2 is essential for the survival of cells. Therefore, we tested the impact of the CK2 inhibitors on the viability of cells in both lines. The inhibitors were applied in increasing concentrations up to 50 µM to growing cell cultures and the viability was analyzed by a MTT assay after 24 h of treatment. The effect of the compounds on the growth of the normal ARPE19 cells was rather moderate (Figure 5A). 5 had no impact on ARPE19 cell viability. 4b reduced the viability to 70% in its highest concentration and 4a exerted the strongest influence by reducing the ratio of viable cells to 40% when applying a 50 µM dose. In contrast LNCaP cells were strongly impaired by the treatment with the dibenzofurans (Figure 5B): Using 10 µM of the different inhibitors, we only observed an effect with 4b. However, increasing the concentration to 20, 25 and 50 µM exerted a drastic impact on the viability of LNCaP cells. With 50 µM 4b a viability rate of final 5% was obtained, whereas 4a and 5 reduced the viability to 30 to 35%. Thus, the inhibitors in particular affected the viability of LNCaP carcinoma cells, but not of normal retinal pigment epithelium cells. […] Even after 48 h of growth under CK2 inhibition ARPE19 cells appeared rather unaffected by the treatment. […]
Figure 5 Effects of dibenzofuran inhibitors on cell viability. […] Cell viability was determined using the MTT assay after 24 h of incubation. […]
ARPE19 cells (ATCC Number: CRL-2302), retinal pigment epithelia (RPE) cells, were maintained at 37 °C and 5% CO2 in Dulbecco’s modified Eagles medium (DMEM) supplemented with 2 mM L-glutamine, 1 mM gentamicin and 10% fetal calf serum (FCS) at 37 °C in an atmosphere enriched with 5% CO2. […] For the evaluation of cell morphology ARPE19 and LNCaP cells were analysed with bright field microscopy using a Axiovert microscope from Zeiss (Jena, Germany).
Cell proliferation and viability was determined using a colorimetric MTT-based assay (MTT: 3-[4,5-dimethylthiazol-2-yl]-2,5-diphenyl tetrazolium bromide, Sigma-Aldrich, Deisenhofen, Germany) as described in [72]. […]

[1] = system: cellular CK2 in LNCaP cells; assay: cellular CK2 activity after treatment of cells (in vitro phosphorylation assay of cell extracts); details: control = 100%
Procedure: (§1) Figure 4 Expression of CK2 in prostate cancer cell line LNCaP and non-neoplastic retinal pigment epithelial cell line ARPE19 and inhibition of intracellular activity by dibenzofurans. (A) Cells were extracted with RIPA buffer. 50 μg cell extract was separated on a 12.5% SDS polyacrylamide gel and transferred to a PVDF membrane followed by Western blotting with anti-CK2α (1A5), anti-CK2α’ (#30), anti-CK2α (6D5) and anti-GAPDH antibodies. GAPDH was used as a loading control. (B) ARPE19 or LNCaP cells were treated with DMSO as control (0 μM) or with 25 or 50 μM 4b, 4a or 5 for 24 or 48 h. Kinase activity of CK2 in the cell extracts was measured with the synthetic CK2 specific peptide substrate, […], in the presence of [[^32P]γATP. Results from at least three individual experiments are shown; the activity in the control cells was set to 100%.
(§2) ARPE19 and LNCaP cells were treated with 0, 25 or 50 µM of the different dibenzofuran derivatives 4b, 4a and 5 for 24 and 48 h before being harvested. Proteins were extracted and CK2 kinase activity was measured by an in vitro phosphorylation assay using the CK2 specific peptide substrate […] and radiolabeled [[^32P]γATP. The activity as measured was normalized to equal protein amounts. The relative CK2 activity of at least three independent experiments is given as bar graphs in Figure 4B. In ARPE19 cells CK2 activity was strongly repressed by all inhibitors. […] For 5 a weaker but dose-dependant effect was observed. 25 µM reduced the cellular CK2 activity to 80% and with 50 µM the activity was reduced to 40%. In LNCaP cells the results were essentially similar to those made in ARPE19 cells. However, the repression of activity by 4b and 4a was not as strong as in ARPE19 cells. 4b reduced the activity to 50%, 4a to 40%. The outcome using 5 was quite similar to the effects observed in ARPE19 cells: a reduction to roughly 80% when using 25 µM, which was enhanced to 40% when using 50 µM. This also indicated cell penetration of compounds 4a, 4b, and 5. A more direct evidence for intracellular inhibition of CK2 could be obtained by measuring the phosphorylation of endogenous natural substrates (biomarker analysis). […] With respect to their results and taking into consideration that the logP values of compounds 4a, 4b, and 5 as given in Table 2 are not of substantial difference, we conclude that the inhibitors were able to cross the cell membrane and exerted a similar inhibitory effect on intracellular CK2 activity in both cell lines.
(§3) ARPE19 cells (ATCC Number: CRL-2302), retinal pigment epithelia (RPE) cells, were maintained at 37 °C and 5% CO2 in Dulbecco’s modified Eagles medium (DMEM) supplemented with 2 mM L-glutamine, 1 mM gentamicin and 10% fetal calf serum (FCS) at 37 °C in an atmosphere enriched with 5% CO2. The hormone-sensitive prostate cancer cell line LNCaP (ATCC: CRL-1740, passage number 30–40) was cultured in RPMI1640 (Sigma-Aldrich Chemie GmbH, Munich, Germany) supplemented with 10% fetal bovine serum and 2 mM L-glutamine at 37 °C in an atmosphere enriched with 5% CO2. 4b, 4a and 5 were dissolved in DMSO as a 10 mM stock solution and cells were treated in the concentrations and times as indicated. Pure DMSO was applied as control. For the evaluation of cell morphology ARPE19 and LNCaP cells were analysed with bright field microscopy using a Axiovert microscope from Zeiss (Jena, Germany).
(§4) For harvesting cells—including floating cells—were scraped off the plate with a rubber policeman and sedimented by centrifugation (7 min, 4 °C, 400× g). Cells were washed with cold phosphate buffered saline (PBS) and the cell pellet was lysed with the double volume of RIPA buffer (50 mM Tris/HCl, pH 8.0, 150 mM NaCl, 0.5% sodium desoxycholate, 1% Triton X-100, 0.1% sodium dodecylsulfate) supplemented with the protease inhibitor cocktail completeTM (Roche Diagnostics GmbH, Mannheim, Germany). […]

[2] = system: cellular CK2 in ARPE19 cells; assay: as above; details: for cellular CK2 activity reduced to: control = 100%
Procedure: as §1, §2, §3, §4

[3] = 25 or 50 µM, 24 or 48 h (not specified)

| SMILES | cell viability reduced to (ARPE19 cells) [%] | cellular CK2 activity reduced to [1, 3] [%] | inhibition of cellular CK2 activity ([2]; ARPE19, 25 µM for 24 h) [%] | inhibition of cellular CK2 activity ([2]; ARPE19, 25 or 50 µM, 24 or 48 h, independent of concentration and time) [%] | impact on cell viability (ARPE19 cells; ARPE19, up to 50 µM) | cellular CK2 activity reduced to ([1]; 25 µM) | cellular CK2 activity reduced to ([1]; 50 µM) [%] | cellular CK2 activity reduced to ([2]; ARPE19, 25 µM) [%] | cellular CK2 activity reduced to ([2]; ARPE19, 50 µM) [%] |
| --- | --- | --- | --- | --- | --- | --- | --- | --- | --- |
| COc1ccc(N/C=C2\C(=O)CCc3c2oc2cc(Cl)c(O)c(Cl)c32)cc1 [4a, 7,9-dichloro-1,2-dihydro-8-hydroxy-4-[(4-methoxyphenylamino)methylene]dibenzo[b,d]furan-3(2H)-one] | 40 | 40 | 80 | – | – | – | – | – | – |
| Cc1ccc(NC=C2C(=O)CCc3c2oc2c(Cl)c(Cl)c(O)cc32)cc1 [4b, 6,7-dichloro-1,4-dihydro-8-hydroxy-4-[(4-methylphenylamino)methylene]dibenzo[b,d]furan-3(2H)-one] | 70 | 50 | – | 60 | – | – | – | – | – |
| COc1ccc(/N=C/c2c(O)ccc3c2oc2cc(Cl)c(O)c(Cl)c23)cc1 [compound 5, (E)-1,3-dichloro-6-[(4-methoxyphenylimino)methyl]dibenzo[b,d]furan-2,7-diol] | – | – | – | – | no impact | roughly 80% | 40 | 80 | 40 |
